Experimental data reported in patent US20260262643A1, “HERBICIDAL BENZOXAZINES” (FMC CORPORATION, priority 2022, published 2026).

Assays:
barnyardgrass [1] = assay: Test C preemergence; format: in vivo, Echinochloa crusgalli; conditions: preemergence, 0 to 100 scale (0 no effect, 100 complete control)
Summary of the method: (§1)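 Seeds sown in loam soil–sand blend received a directed preemergence soil spray of test chemical in non-phytotoxic solvent with surfactant; postemergence plants (2–10 cm, one- to two-leaf stage) were sprayed with the same formulation. Greenhouse-held 10 days, then visually rated for injury versus untreated controls, 0 (no effect) to 100 (complete control).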

blackgrass [2] = assay: Test C preemergence; format: in vivo, Alopecurus myosuroides; conditions: preemergence, 0 to 100 scale (0 no effect, 100 complete control)
Summary of the method: as §1

corn [3] = assay: Test C preemergence; format: in vivo, Zea mays; conditions: preemergence, 0 to 100 scale (0 no effect, 100 complete control)
Summary of the method: as §1

green foxtail [4] = assay: Test C preemergence; format: in vivo, Setaria viridis; conditions: preemergence, 0 to 100 scale (0 no effect, 100 complete control)
Summary of the method: as §1

kochia [5] = assay: Test C preemergence; format: in vivo, Bassia scoparia; conditions: preemergence, 0 to 100 scale (0 no effect, 100 complete control)
Summary of the method: as §1

oat, wild [6] = assay: Test C preemergence; format: in vivo, Avena fatua; conditions: preemergence, 0 to 100 scale (0 no effect, 100 complete control)
Summary of the method: as §1

pigweed, palmer [7] = assay: Test C preemergence; format: in vivo, Amaranthus palmeri; conditions: preemergence, 0 to 100 scale (0 no effect, 100 complete control)
Summary of the method: as §1

ragweed [8] = assay: Test C preemergence; format: in vivo, Ambrosia artemisiifolia; conditions: preemergence, 0 to 100 scale (0 no effect, 100 complete control)
Summary of the method: as §1

ryegrass, Italian [9] = assay: Test C preemergence; format: in vivo, Lolium multiflorum; conditions: preemergence, 0 to 100 scale (0 no effect, 100 complete control)
Summary of the method: as §1

soybean [10] = assay: Test C preemergence; format: in vivo, Glycine max; conditions: preemergence, 0 to 100 scale (0 no effect, 100 complete control)
Summary of the method: as §1

wheat [11] = assay: Test C preemergence; format: in vivo, Triticum aestivum; conditions: preemergence, 0 to 100 scale (0 no effect, 100 complete control)
Summary of the method: as §1

barnyardgrass [12] = assay: Test C postemergence; format: in vivo, Echinochloa crusgalli; conditions: 10 days, 0 to 100 scale (0 no effect, 100 complete control)
Summary of the method: as §1

blackgrass [13] = assay: Test C postemergence; format: in vivo, Alopecurus myosuroides; conditions: 10 days, 0 to 100 scale (0 no effect, 100 complete control)
Summary of the method: as §1

corn [14] = assay: Test C postemergence; format: in vivo, Zea mays; conditions: 10 days, 0 to 100 scale (0 no effect, 100 complete control)
Summary of the method: as §1

green foxtail [15] = assay: Test C postemergence; format: in vivo, Setaria viridis; conditions: 10 days, 0 to 100 scale (0 no effect, 100 complete control)
Summary of the method: as §1

kochia [16] = assay: Test C postemergence; format: in vivo, Bassia scoparia; conditions: 10 days, 0 to 100 scale (0 no effect, 100 complete control)
Summary of the method: as §1

oat, wild [17] = assay: Test C postemergence; format: in vivo, Avena fatua; conditions: 10 days, 0 to 100 scale (0 no effect, 100 complete control)
Summary of the method: as §1

pigweed, palmer [18] = assay: Test C postemergence; format: in vivo, Amaranthus palmeri; conditions: 10 days, 0 to 100 scale (0 no effect, 100 complete control)
Summary of the method: as §1

ragweed [19] = assay: Test C postemergence; format: in vivo, Ambrosia artemisiifolia; conditions: 10 days, 0 to 100 scale (0 no effect, 100 complete control)
Summary of the method: as §1

ryegrass, Italian [20] = assay: Test C postemergence; format: in vivo, Lolium multiflorum; conditions: 10 days, 0 to 100 scale (0 no effect, 100 complete control)
Summary of the method: as §1

soybean [21] = assay: Test C postemergence; format: in vivo, Glycine max; conditions: 10 days, 0 to 100 scale (0 no effect, 100 complete control)
Summary of the method: as §1

wheat [22] = assay: Test C postemergence; format: in vivo, Triticum aestivum; conditions: 10 days, 0 to 100 scale (0 no effect, 100 complete control)
Summary of the method: as §1

galium = assay: Test C postemergence; format: in vivo, Galium aparine; conditions: 10 days, 0 to 100 scale (0 no effect, 100 complete control)
Summary of the method: as §1

horseweed = assay: Test C postemergence; format: in vivo, Erigeron canadensis; conditions: 10 days, 0 to 100 scale (0 no effect, 100 complete control)
Summary of the method: as §1

barnyardgrass [23] = assay: Test D flooded paddy test; format: in vivo, Echinochloa crus-galli; conditions: 250 g ai/ha, applied to paddy water, visual rating after 13 to 14 days, scale 0 to 100 (0 no effect, 100 complete control)
Summary of the method: (§2)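 Rating scale 0–100 (0 no effect, 100 complete control), visual, versus controls. Readout at 13–14 days after in-water application to 2-leaf plants in pots flooded 3 cm deep.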

ducksalad = assay: Test D flooded paddy test; format: in vivo, Heteranthera limosa; conditions: 250 g ai/ha, applied to paddy water, visual rating after 13 to 14 days, scale 0 to 100 (0 no effect, 100 complete control)
Summary of the method: as §2

rice = assay: Test D flooded paddy test; format: in vivo, Oryza sativa; conditions: 250 g ai/ha, applied to paddy water, visual rating after 13 to 14 days, scale 0 to 100 (0 no effect, 100 complete control)
Summary of the method: as §2

sedge, umbrella = assay: Test D flooded paddy test; format: in vivo, Cyperus difformis; conditions: 250 g ai/ha, applied to paddy water, visual rating after 13 to 14 days, scale 0 to 100 (0 no effect, 100 complete control)
Summary of the method: as §2

With `COC[C@H]1CN(C(=O)c2cc(-n3cnc(C(C)C)n3)ccc2C)c2cccc(Cl)c2O1` [Compound 313] the “Barnyardgrass plant response rating” value (barnyardgrass [1]; 500 g ai/ha) was 100, the “Barnyardgrass plant response rating” value (barnyardgrass [1]; Test C, 125 g ai/ha) was 80 and the “Blackgrass plant response rating” value (blackgrass [2]; 500 g ai/ha) was 60. For the same molecule, the “Blackgrass plant response rating” value (blackgrass [2]; Test C, 125 g ai/ha) was 50, the “Corn plant response rating” value (corn [3]; 500 g ai/ha) was 0 and the “Corn plant response rating” value (corn [3]; Test C, 125 g ai/ha) was 0. The “Foxtail, Green plant response rating” value (green foxtail [4]; 500 g ai/ha) was 100, the “Foxtail, Green plant response rating” value (green foxtail [4]; Test C, 125 g ai/ha) was 100 and the “Kochia plant response rating” value (kochia [5]; 500 g ai/ha) was 100. For the same molecule, the “Kochia plant response rating” value (kochia [5]; Test C, 125 g ai/ha) was 80, the “Oat, Wild plant response rating” value (oat, wild [6]; 500 g ai/ha) was 90 and the “Oat, Wild plant response rating” value (oat, wild [6]; Test C, 125 g ai/ha) was 90. The “Pigweed, Palmer plant response rating” value (pigweed, palmer [7]; 500 g ai/ha) was 100, the “Pigweed, Palmer plant response rating” value (pigweed, palmer [7]; Test C, 125 g ai/ha) was 100 and the “Ragweed plant response rating” value (ragweed [8]; 500 g ai/ha) was 70. For the same molecule, the “Ragweed plant response rating” value (ragweed [8]; Test C, 125 g ai/ha) was 0, the “Ryegrass, Italian plant response rating” value (ryegrass, Italian [9]; 500 g ai/ha) was 100 and the “Ryegrass, Italian plant response rating” value (ryegrass, Italian [9]; Test C, 125 g ai/ha) was 80. The “Soybean plant response rating” value (soybean [10]; 500 g ai/ha) was 100, the “Soybean plant response rating” value (soybean [10]; Test C, 125 g ai/ha) was 40 and the “Wheat plant response rating” value (wheat [11]; 500 g ai/ha) was 90. For the same molecule, the “Wheat plant response rating” value (wheat [11]; Test C, 125 g ai/ha) was 20, the “Plant response rating, Barnyardgrass” value (barnyardgrass [12]; 500 g ai/ha, postemergence) was 70 and the “Plant response rating, Barnyardgrass” value (barnyardgrass [12]; Postemergence, 125 g ai/ha) was 40. For the same molecule, the “Plant response rating, Blackgrass” value (blackgrass [13]; 500 g ai/ha, postemergence) was 100, the “Plant response rating, Blackgrass” value (blackgrass [13]; Postemergence, 125 g ai/ha) was 70 and the “Plant response rating, Corn” value (corn [14]; 500 g ai/ha, postemergence) was 90. For the same molecule, the “Plant response rating, Corn” value (corn [14]; Postemergence, 125 g ai/ha) was 80, the “Plant response rating, Foxtail, Green” value (green foxtail [15]; 500 g ai/ha, postemergence) was 90 and the “Plant response rating, Foxtail, Green” value (green foxtail [15]; Postemergence, 125 g ai/ha) was 40. For the same molecule, the “Plant response rating, Kochia” value (kochia [16]; 500 g ai/ha, postemergence) was 90, the “Plant response rating, Kochia” value (kochia [16]; Postemergence, 125 g ai/ha) was 90 and the “Plant response rating, Oat, Wild” value (oat, wild [17]; 500 g ai/ha, postemergence) was 60. The “Plant response rating, Oat, Wild” value (oat, wild [17]; Postemergence, 125 g ai/ha) was 20, the “Plant response rating, Pigweed, Palmer” value (pigweed, palmer [18]; 500 g ai/ha, postemergence) was 100 and the “Plant response rating, Pigweed, Palmer” value (pigweed, palmer [18]; Postemergence, 125 g ai/ha) was 80. The “Plant response rating, Ragweed” value (ragweed [19]; 500 g ai/ha, postemergence) was 90, the “Plant response rating, Ragweed” value (ragweed [19]; Postemergence, 125 g ai/ha) was 60 and the “Plant response rating, Ryegrass, Italian” value (ryegrass, Italian [20]; 500 g ai/ha, postemergence) was 90. The “Plant response rating, Ryegrass, Italian” value (ryegrass, Italian [20]; Postemergence, 125 g ai/ha) was 80, the “Plant response rating, Soybean” value (soybean [21]; 500 g ai/ha, postemergence) was 100 and the “Plant response rating, Soybean” value (soybean [21]; Postemergence, 125 g ai/ha) was 100. The “Plant response rating, Wheat” value (wheat [22]; 500 g ai/ha, postemergence) was 50, the “Plant response rating, Wheat” value (wheat [22]; Postemergence, 125 g ai/ha) was 30 and the “Plant response rating, Galium” value (galium; 500 g ai/ha, postemergence) was 100. For the same molecule, the “Plant response rating, Galium” value (galium; Postemergence, 125 g ai/ha) was 100, the “Plant response rating, Horseweed” value (horseweed; 500 g ai/ha, postemergence) was 90 and the “Plant response rating, Horseweed” value (horseweed; Postemergence, 125 g ai/ha) was 90. For the same molecule, the “Plant response rating, Barnyardgrass (Flood)” value (barnyardgrass [23]) was 35, the “Plant response rating, Ducksalad (Flood)” value (ducksalad) was 65 and the “Plant response rating, Rice (Flood)” value (rice) was 20. The “Plant response rating, Sedge, Umbrella (Flood)” value (sedge, umbrella) was 98.
